{"source": "patent EP0976747A2", "about": "“Use of 5HT-1F receptor antagonists for treating anxiety disorders” (ELI LILLY AND COMPANY, priority 1998, dated 2000)", "test_system": "male Wister rats", "assay": "Social interaction test of experimental anxiety", "assay_type": "in vivo", "conditions": "20 mg/kg intraperitoneal, tested 1 hour after dosing, 5 minutes observation, compared to baseline, significance at p<0.01", "description": "The procedure for this assay is summarized below.\nAll experiments were performed on male Wister rats (Harlan laboratories, 275-300 gm). The rats were individually housed in a temperature controlled room (72°F) on a 12 hour day/night cycle. The rats were provided food and water ad libitum.\nApproximately 40 mg of the test compound was weighed into a 20 mL glass vial. To this solid were added 80µL of lactic acid (85%). The mixture was sonicated for 2 minutes and then 4mL of distilled water was added in lmL increments. Sonication of this mixture was continued until all of the solid had dissolved. Following sonication, the pH of the mixture was raised by the addition of dilute aqueous sodium hydroxide until the mixture reached a pH of about 5.5.\nEach rat was weighed and the test compound administered by intraperitoneal injection at 20 mg/kg of body weight. […]\nExperimental anxiety was measured by a social interaction test. […] A video camera was fixed above the social interaction box and all behavioral tests were recorded. […] The amount of time that the rat which received test compound spent interacting (i.e. grooming, sniffing, crawling upon) with the other rat was recorded. […]\nSocial interaction data was analyzed as total interaction time in seconds and the raw scores were compared between baseline and treatment. […]"}
{"smiles": "O[C@H](COc1ccc2ccccc2c1)CN1CCC(O)(c2cnc3ccccc3c2)CC1", "note": "[Example 37, 1-((2S)-hydroxy-3-(naphth-2-yloxy)prop-1-yl)-4-hydroxy-4-(quinolin-3-yl)piperidine]", "values": [{"measurement": "social interaction time", "value": "significantly increase social interaction time as compared to baseline"}]}
